For 21 compounds, emission maximum results are on record in the Deep4Chem optical property database.

The first data set in a line: solvent given as SMILES. The settings on record: in C1CCCCC1.
On to `CCC1(CC)c2ccccc2-c2ccc(C#Cc3ccc4ccc5cccc6ccc3c4c56)cc21`, for which the emission maximum was found to be 407 nm.
Regarding `CCN(CC)c1ccc2c(C(F)(F)F)cc(=O)oc2c1`, the emission maximum was found to be 433 nm.
Take `F[B-]1(F)n2c(Nc3cccc4cccnc34)ccc2C(c2ccccc2)=C2C=CC(Cl)=[N+]21`: the emission maximum came out at 580 nm.
As for `C(=C\c1ncnc2ccccc12)/c1ccc(N2CCCCC2)cc1`, the emission maximum is listed as 480 nm.
`CC(C)(C)c1ccc(-c2cc3c4c(c2)CCc2cc(-c5ccc(C(C)(C)C)cc5)cc(c2-4)CC3)cc1` registered an emission maximum of 382.09 nm.

The data set is the same for the next values; noted with them: in C1CCOC1.
Compound `CCC1(CC)c2ccccc2-c2ccc(C#Cc3ccc4ccc5cccc6ccc3c4c56)cc21` registered an emission maximum of 410 nm.
In the case of `OC1(c2ccc(-c3cccs3)s2)CCC1`, the emission maximum is on record as 470 nm.
In turn, `CCC1(CC)c2cc(-c3cccs3)ccc2-c2c1c1c(c3c2C(CC)(CC)c2cc(-c4cccs4)ccc2-3)C(CC)(CC)c2cc(-c3cccs3)ccc2-1` yielded an emission maximum of 385 nm.
The compound `F[B-]1(F)n2c(-c3ccccc3)cc(-c3ccccc3)c2C(c2ccccc2)=C2C(c3ccccc3)=CC(c3ccccc3)=[N+]21` yielded an emission maximum of 597 nm.
With `C(=C\c1ncnc2ccccc12)/c1ccc(N2CCCCC2)cc1`, the emission maximum is recorded as 540 nm.
Still for that read-out and setting: the same measure for `c1ccc(-c2nc(-c3ccccc3)nc(-n3c4ccccc4c4cccc(-n5c6ccccc6c6ccccc65)c43)n2)cc1`: 477.86 nm.
Consider `Cc1ccc(C2=[N+]3C(=Cc4ccc(C)n4[B-]3(F)F)c3ccccc32)[nH]1`, for which the emission maximum was determined as 621 nm.
In the case of `CC(C)(C)c1ccc(-c2cc3c4c(c2)CCc2cc(-c5ccc(C(C)(C)C)cc5)cc(c2-4)CC3)cc1`, the emission maximum was found to be 384.87 nm.
Take `CCCCCCN(c1ccccc1)c1ccc2c(c1)C(CC)(CC)c1cc(/C=C/c3ccc(/C=C(\C#N)C(=O)O)s3)ccc1-2`: the emission maximum was 651 nm.
Take `COc1ccc2c(c1)c1ccccc1n2-c1nc2ccccc2nc1-n1c2ccccc2c2cc(OC)ccc21`: the emission maximum is 588.86 nm.
The compound `Cc1ccc(-c2ccc(-c3ccc(C)cc3)c(/C(=C(/c3ccccc3)c3cc(-c4ccc(C)cc4)ccc3-c3ccc(C)cc3)c3ccccc3)c2)cc1` showed an emission maximum of 492 nm.

The data set is the same for the next values; noted with them: in C1COCCO1.
`N#Cc1ccc(/C=C2\N=C(c3ccccc3)OC2=O)cc1` came in with an emission maximum of 426 nm.
In turn, `CCCCCCN(c1ccccc1)c1ccc2c(c1)C(CC)(CC)c1cc(/C=C/c3ccc(/C=C(\C#N)C(=O)O)s3)ccc1-2` displayed an emission maximum of 620 nm.

The data set is the same for the next values; noted with them: in CC#N.
In turn, `CCC1(CC)c2ccccc2-c2ccc(C#Cc3ccc4ccc5cccc6ccc3c4c56)cc21` gave an emission maximum of 408 nm.
Consider `CCN(CC)c1ccc2c(C(F)(F)F)cc(=O)oc2c1`, for which the emission maximum was determined as 501 nm.
The same measure, in the same setting: the same measure for `N#Cc1ccc(/C=C2\OC(=O)c3cc(N)ccc32)cc1`: 485.44 nm.
The compound `F[B-]1(F)n2c(Nc3cccc4cccnc34)ccc2C(c2ccccc2)=C2C=CC(Cl)=[N+]21` had an emission maximum of 580 nm.
Turning to `OC1(c2ccc(-c3cccs3)s2)CCC1`, the emission maximum turned out to be 460 nm.
On the same count and under the same terms, the same measure for `CCC1=C(C)C2=C(c3ccc(-c4c5ccccc5c(-c5ccccc5)c5ccccc45)cc3)c3c(C)c(CC)c(C)n3[B-](F)(F)[N+]2=C1C`: 534 nm; for `CN(C)c1cc(-c2ccc(C#Cc3ccncc3)cc2)cc2ccccc12`: 417.83 nm.
On to `COc1ccc(-c2csc(/C(C#N)=C/c3ccc(C#N)cc3)n2)cc1`, for which the emission maximum is on record as 561 nm.
`CCCn1c2cccc3oc4cccc5oc6cccc1c6[c+](c45)c32` yielded an emission maximum of 560 nm.
In the case of `C(=C\c1ncnc2ccccc12)/c1ccc(N2CCCCC2)cc1`, the emission maximum was found to be 579 nm.
On to `Cc1ccc(C2=[N+]3C(=Cc4ccc(C)n4[B-]3(F)F)c3ccccc32)[nH]1`, for which the emission maximum stood at 620 nm.
`CC(C)(C)c1ccc(-c2cc3c4c(c2)CCc2cc(-c5ccc(C(C)(C)C)cc5)cc(c2-4)CC3)cc1` showed an emission maximum of 383.16 nm.
`CCCCCCN(c1ccccc1)c1ccc2c(c1)C(CC)(CC)c1cc(/C=C/c3ccc(/C=C(\C#N)C(=O)O)s3)ccc1-2` displayed an emission maximum of 554 nm.

The same data set, now with this note: in CC(C)=O.
As to `N#Cc1ccc(/C=C2\OC(=O)c3cc(N)ccc32)cc1`, the emission maximum came to 482.16 nm.
On the same count and under the same terms, for `CCCCCCN(c1ccccc1)c1ccc2c(c1)C(CC)(CC)c1cc(/C=C/c3ccc(/C=C(\C#N)C(=O)O)s3)ccc1-2` the value was 574 nm.

The same data set, now with this note: in CC(C)CO.
Compound `N#Cc1ccc(/C=C2\OC(=O)c3cc(N)ccc32)cc1` registered an emission maximum of 502.26 nm.

Staying with this data set, now noted: in CC(C)O.
`N#Cc1ccc(/C=C2\OC(=O)c3cc(N)ccc32)cc1` came in with an emission maximum of 496.03 nm.

Still in this data set, the particulars now being: in CCCCCC.
`OC1(c2ccc(-c3cccs3)s2)CCC1` yielded an emission maximum of 465 nm.
`CCC1=C(C)C2=C(c3ccc(-c4c5ccccc5c(-c5ccccc5)c5ccccc45)cc3)c3c(C)c(CC)c(C)n3[B-](F)(F)[N+]2=C1C` displayed an emission maximum of 536 nm.
In turn, `Cc1ccc(C2=[N+]3C(=Cc4ccc(C)n4[B-]3(F)F)c3ccccc32)[nH]1` gave an emission maximum of 613 nm.
`CC(C)(C)c1ccc(-c2cc3c4c(c2)CCc2cc(-c5ccc(C(C)(C)C)cc5)cc(c2-4)CC3)cc1` returned an emission maximum of 381.02 nm.
`COc1ccc2c(c1)c1ccccc1n2-c1nc2ccccc2nc1-n1c2ccccc2c2cc(OC)ccc21`: the emission maximum is listed as 508.97 nm.

The same data set, now with this note: in CCCO.
The compound `N#Cc1ccc(/C=C2\OC(=O)c3cc(N)ccc32)cc1` gave an emission maximum of 498.26 nm.

Staying with this data set, now noted: in CCO.
With `CCN(CC)c1ccc2c(C(F)(F)F)cc(=O)oc2c1`, the emission maximum is 509 nm.
On the same count and under the same terms, for `N#Cc1ccc(/C=C2\OC(=O)c3cc(N)ccc32)cc1` the value was 502.77 nm; for `OC1(c2ccc(-c3cccs3)s2)CCC1`, 415 nm; for `CCC1=C(C)C2=C(c3ccc(-c4c5ccccc5c(-c5ccccc5)c5ccccc45)cc3)c3c(C)c(CC)c(C)n3[B-](F)(F)[N+]2=C1C`, 537 nm.
For `CN(C)c1cc(-c2ccc(C#Cc3ccncc3)cc2)cc2ccccc12`, the emission maximum is given as 411.74 nm.
Compound `COc1ccc(-c2csc(/C(C#N)=C/c3ccc(C#N)cc3)n2)cc1` registered an emission maximum of 555 nm.
`CCOC(=O)c1cc(C(=O)OCC)c2cc(NC(=O)C(F)(F)F)ccc2n1` returned an emission maximum of 436 nm.
`CCN(CC)c1ccc2cc(C#N)/c(=N\C(=O)c3ccc(C)cc3)oc2c1`: the emission maximum was found to be 530 nm.
On the same count and under the same terms, the same measure for `CC(C)(C)c1ccc(-c2cc3c4c(c2)CCc2cc(-c5ccc(C(C)(C)C)cc5)cc(c2-4)CC3)cc1`: 382.73 nm.

The data set is the same for the next values; noted with them: in CCOC(C)=O.
Regarding `CCC1(CC)c2ccccc2-c2ccc(C#Cc3ccc4ccc5cccc6ccc3c4c56)cc21`, the emission maximum is listed as 406 nm.
Consider `CCN(CC)c1ccc2c(C(F)(F)F)cc(=O)oc2c1`, for which the emission maximum worked out at 479 nm.
`N#Cc1ccc(/C=C2\OC(=O)c3cc(N)ccc32)cc1` came in with an emission maximum of 467.73 nm.
The same measure, in the same setting: the same measure for `CCCCCCN(c1ccccc1)c1ccc2c(c1)C(CC)(CC)c1cc(/C=C/c3ccc(/C=C(\C#N)C(=O)O)s3)ccc1-2`: 654 nm.

Staying with this data set, now noted: in CCOCC.
On to `N#Cc1ccc(/C=C2\OC(=O)c3cc(N)ccc32)cc1`, for which the emission maximum was determined as 444.84 nm.
